# In ChEMBL document CHEMBL1137883, “Synthesis and vasorelaxant properties of hybrid molecules out of NO-donors and the beta-receptor blocking drug propranolol” (2004):
# What was measured:
# Sus scrofa [1] = species on record: Sus scrofa; experiment: Concentration required for relaxation of PGF2-alpha (3 uM)-precontracted porcine pulmonary arteries; activity expressed as pD2
# Sus scrofa [2] = species on record: Sus scrofa; experiment: Concentration required for relaxation of isolated porcine coronary arteries; activity expressed as pD2; format: functional
pD2 (Sus scrofa [1]),SMILES,pD2 (Sus scrofa [2])
5.4,CC(C)N(CC(O)COc1cccc2ccccc12)C(=O)C(C)(C)CO[N+](=O)[O-] (centres undefined),
,CC(=O)N[C@@H](C(=O)O)C(C)(C)SN=O,6.69
6.94,CC(=O)N[C@@H](C(=O)N(CC(O)COc1cccc2ccccc12)C(C)C)C(C)(C)SN=O (some centres undefined),

SMILES,pD2 (Sus scrofa [1]),pD2 (Sus scrofa [2])
CC(C)(CO[N+](=O)[O-])C(=O)O,4.69,
